Columns and labels:
[1] = biological target: T1, hen egg white lysozyme (HEWL) (Gallus gallus, UniProt P00698); experiment: Synchronous fluorescence spectroscopy of HEWL; format: binding; conditions: Δλ = 60 nm
T1 construct: whose 129 amino acid residues are linked together by four disulfide bridges to form a single polypeptide chain; purchased Sigma-Aldrich L6876; host or cells: hen egg white (natural source, per the protein's name)
Procedure: To obtain synchronous fluorescence spectra, simultaneous scanning of excitation and emission monochromators was performed in such a way as to maintain a constant wavelength interval between them. The changes in the molecular microenvironment of tyrosine and tryptophan residues of HEWL were monitored by fixing the wavelength interval (Δλ = λem − λex) individually at 15 and 60 nm, respectively. The concentrations of HEWL and three metal complexes of diacetylcurcumin were the same as those mentioned for the intrinsic fluorescence spectroscopy.
To investigate the effect of the metal complexes of diacetylcurcumin on the conformation of tyrosine and tryptophan residues of HEWL, synchronous fluorescence spectra of HEWL were recorded alone and in the presence of the metal complexes (electronic supplementary material, figure S5). By fixing the Δλ value, i.e. the difference between excitation and emission wavelengths, at 15 and 60 nm, synchronous fluorescence spectroscopy provides useful information on the microenvironmental changes of tyrosine and tryptophan residues of proteins, respectively. As shown in the electronic supplementary material, figure S5, all three metal complexes of diacetylcurcumin strongly quench the emission fluorescence of HEWL at both 15 and 60 nm. […] At Δλ = 15 nm, no shift in the emission maximum of HEWL is observed, whereas at Δλ = 60 nm, a 2 nm blue shift is observed in the emission spectrum of tryptophan residues of the protein after the interaction with the metal complexes of diacetylcurcumin except for the VO(DAC)2 complex. […] Overall, it can be concluded that the formation of HEWL/metal complex bioconjugates is associated with the binding of three metal complexes of diacetylcurcumin to both tyrosine and tryptophan residues in which the conformational changes can occur only around the tryptophan residues of the protein. It should be noted that the reduction in the polarity of the microregions surrounding tryptophan residues of the protein has already been observed by the intrinsic emission fluorescence titrations (see §3.1.1.).

mouse lymphoma cells = test system: mouse lymphoma cells; parameters: method as in PMID 16171869; conditions: read-out: IC50 cytotoxicity; cited from earlier work
HEWL amyloid fibrils = biological target: T2, HEWL amyloid fibrils (Gallus gallus, UniProt P00698); experiment: Thioflavin T fluorescence assay of HEWL amyloid fibrillation; format: biochemical, hen; conditions: HEWL 70 µM, complex 10 µM; for effect on amyloid fibrillation of HEWL (ThT fluorescence): pH 2.0, 140 min incubation
T2 construct: whose 129 amino acid residues are linked together by four disulfide bridges to form a single polypeptide chain; purchased Sigma-Aldrich L6876; host or cells: hen egg white (natural source, per the protein's name)
Procedure: To prepare HEWL amyloid fibrils, a solution of the protein (5 ml, 70 µM) was prepared in 100 mM PBS, and the pH adjusted to 2.0 using hydrochloric acid. The solution was then incubated in a shaker incubator bath at 450 rpm and 58°C for 140 min. To investigate the effect of the diacetylcurcumin-based metal complexes on HEWL amyloid fibrillation, three separate samples, each containing HEWL (70 µM) and one of the metal complexes of diacetylcurcumin (10 µM), were prepared and incubated under the above conditions.
For ThT assay, a 17 µl volume of the incubated HEWL (70 µM) samples was added to 983 µl of ThT solution for the final HEWL and ThT concentrations of 1.2 µM and 20 µM, respectively. ThT spectra containing the incubated HEWL/metal complexes were recorded 5 min after recording the spectrum of ThT solution as control solution. All spectra were recorded using a Varian Cary Eclipse fluorescence spectrophotometer at 25°C. ThT solution was excited with a 440 nm wavelength and emission fluorescence spectra were recorded in the wavelength range of 450–600 nm.
Enhancement of ThT fluorescence intensity upon its rapid and strong binding to the cross β-sheet structure of amyloid fibrils is important evidence to confirm the amyloid fibril formation of proteins. The inhibitory activities of Ga(DAC)3, In(DAC)3 and VO(DAC)2 complexes on the amyloid fibrillation process of HEWL were explored by ThT fluorescence assay over 140 min period of incubation at pH 2.0. The kinetics of the fibrillation process in the absence and presence of the considered complexes is depicted in figure 4a.
To estimate the lag time and apparent rate constant for growth of fibrils, the following equation was employed on the ThT fluorescence data: F=Fmin+Fmax/1+e^−(t−t0/τ),
where F is the fluorescence intensity in t, Fmin and Fmax are fluorescence intensities in initial time and saturation phase, respectively, t is incubation time and t0 is required time to get 50% of maximal fluorescence intensity. The apparent rate constant, kapp, is given by 1/τ and the lag time is approximated by t0 − 2τ. […]

Compound	microenvironment of tryptophan residues of HEWL [1]	IC50 (mouse lymphoma cells) [µM]	effect on amyloid fibrillation of HEWL (ThT fluorescence) (HEWL amyloid fibrils)	effect on lag time and t0 of fibrillation (HEWL amyloid fibrils; pH 2.0)
COc1cc(/C=C/C(=O)C=C([O-])/C=C/c2ccc(OC(C)=O)c(OC)c2)ccc1OC(C)=O.COc1cc(/C=C/C(=O)C=C([O-])/C=C/c2ccc(OC(C)=O)c(OC)c2)ccc1OC(C)=O.[O]=[V+2] [VO(DAC)2, vanadyl diacetylcurcumin]	remains unaffected	7 to 10	highest inhibitory effect	–
COc1cc(C=CC(=O)C=C([O-])C=Cc2ccc(OC(C)=O)c(OC)c2)ccc1OC(C)=O.COc1cc(C=CC(=O)C=C([O-])C=Cc2ccc(OC(C)=O)c(OC)c2)ccc1OC(C)=O.COc1cc(C=CC(=O)C=C([O-])C=Cc2ccc(OC(C)=O)c(OC)c2)ccc1OC(C)=O.[In+3] [In(DAC)3, indium diacetylcurcumin]	more hydrophobic	20 to 25	considerable delaying effect	significant increase in the lag time and t0
